Test results reported in patent US20240025862A1, “SUBSTITUTED N-PHENYLURACILS AND SALTS THEREOF, AND USE THEREOF AS HERBICIDAL ACTIVE SUBSTANCES” (Bayer Aktiengesellschaft, priority 2020, published 2024).

Legend:
Assay type in all cases: in vivo
Oryza sativa (ORYSA) = assay: Post-emergence crop plant compatibility, greenhouse pot test (also comparative test C); conditions: vs untreated controls
Summary of the method: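 Rice and other crops sprayed post-emergence at one-leaf stage (2–3 weeks after sowing) with WP or EC formulations plus 0.5% additive at 600 l/ha water. Visual rating about 3 weeks later versus untreated controls (100% = dead, 0% = like control); suffixes a–c denote different doses.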

[1] = test system: Polygonum convolvulus (POLCO); assay: Post-emergence herbicidal action, greenhouse pot test
Summary of the method: (§1)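 Greenhouse-grown weeds in sandy loam were sprayed post-emergence at the one-leaf stage, 2–3 weeks after sowing. Compounds were formulated as WP or EC in water with 0.5% additive at 600 l/ha, at rates of 20 g/ha or less. Visual rating after about 3 weeks used a scale from 0% (like untreated control) to 100% (plants dead).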

[2] = test system: Amaranthus retroflexus (AMARE); assay: as above; conditions: rated visually after about 3 weeks vs untreated controls, 100% = plants have died
Summary of the method: as §1

[3] = test system: Pharbitis purpurea (PHBPU); assay: as above
Summary of the method: as §1

Viola tricolor (VIOTR) = assay: as above
Summary of the method: as §1

[4] = test system: Abutilon theophrasti (ABUTH); assay: as above; conditions: rated visually after about 3 weeks vs untreated controls, 100% = plants have died
Summary of the method: as §1

Stellaria media (STEME) = assay: as above
Summary of the method: as §1

Veronica persica (VERPE) = assay: as above
Summary of the method: as §1

[5] = test system: Matricaria inodora (MATIN); assay: Post-emergence herbicidal action, greenhouse pot test (also comparative test C)
Summary of the method: (§2)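 Green parts of one-leaf-stage plants are sprayed at 600 l/ha with formulated compound plus 0.5% additive, then kept under optimum greenhouse conditions for about 3 weeks. Damage is scored visually, where 100% means dead plants and 0% means no difference from controls.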

[6] = test system: Echinochloa crus-galli (ECHCG); assay: as above
Summary of the method: as §2

[7] = test system: Alopecurus myosuroides (ALOMY); assay: as above; conditions: 20 g/ha, rated visually after about 3 weeks vs untreated controls, 100% = plants have died
Summary of the method: as §2

Setaria viridis (SETVI) = assay: as above; conditions: for Post-emergence action against SETVI: 20 g/ha
Summary of the method: as §2

[8] = test system: Triticum aestivum (TRZAS); assay: Post-emergence crop plant compatibility, greenhouse pot test; conditions: vs untreated controls
Summary of the method: (§3)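 Greenhouse-grown crop plants sprayed post-emergence at the one-leaf stage with WP or EC formulations plus 0.5% additive, at 600 l/ha water. Damage rated visually after about 3 weeks versus untreated controls (0% = like control, 100% = dead); suffixes a/b/c denote different dosages.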

Brassica napus (BRSNW) = assay: as above; conditions: 1.25 g/ha, vs untreated controls
Summary of the method: as §3

Glycine max (GLXMA) = assay: as above
Summary of the method: as §3

| Post-emergence action against ORYSA (crop plant compatibility) (Oryza sativa (ORYSA); 1.25 g/ha) [%] | Post-emergence action against ORYSA (crop plant compatibility) (Oryza sativa (ORYSA); 5 g/ha) [%] | Compound | Post-emergence action against POLCO in % ([1]; dosage 5 g/ha) [%] | Post-emergence action against POLCO in % ([1]; dosage 20 g/ha) [%] | Post-emergence action at 1.25 g/ha against AMARE in % [2] [%] | Post-emergence action at 5 g/ha against AMARE in % [2] [%] | Post-emergence action at 20 g/ha against AMARE in % [2] [%] | Post-emergence action against PHBPU in % ([3]; dosage 1.25 g/ha) [%] | Post-emergence action against PHBPU in % ([3]; dosage 5 g/ha) [%] | Post-emergence action against PHBPU in % ([3]; dosage 20 g/ha) [%] | Post-emergence action against VIOTR (Viola tricolor (VIOTR); 1.25 g/ha) [%] | Post-emergence action against VIOTR (Viola tricolor (VIOTR); 5 g/ha) [%] | Post-emergence action against VIOTR (Viola tricolor (VIOTR); 20 g/ha) [%] | Post-emergence action at 5 g/ha against ABUTH in % [4] [%] | Post-emergence action at 20 g/ha against ABUTH in % [4] [%] | Post-emergence action against STEME (Stellaria media (STEME); 5 g/ha) [%] | Post-emergence action against STEME (Stellaria media (STEME); 20 g/ha) [%] | Post-emergence action against VERPE (Veronica persica (VERPE); 1.25 g/ha) [%] | Post-emergence action against VERPE (Veronica persica (VERPE); 5 g/ha) [%] | Post-emergence action against VERPE (Veronica persica (VERPE); 20 g/ha) [%] | further results |
| --- | --- | --- | --- | --- | --- | --- | --- | --- | --- | --- | --- | --- | --- | --- | --- | --- | --- | --- | --- | --- | --- |
| 20 | 20 | CC(Oc1ccccc1Sc1cc(-n2c(=O)cc(C(F)(F)F)n(C)c2=O)c(F)cc1Cl)C(=O)OCC1CCCO1 (mixture of isomers) [I.2-71] | 100 | 100 | 100 | 100 | 100 | 80 | 100 | 100 | 100 | 100 | 100 | 100 | 100 | 100 | 100 | 100 | 100 | 100 | Post-emergence action against MATIN in % ([5]; dosage 5 g/ha): 80%; Post-emergence action against MATIN in % ([5]; dosage 20 g/ha): 90%; Post-emergence action against ECHCG in % ([6]; dosage 20 g/ha): 80%; Post-emergence action at 20 g/ha against ALOMY in % [7]: 80%; Post-emergence action against SETVI (Setaria viridis (SETVI)): 100%; Post-emergence action against SETVI in % (Setaria viridis (SETVI); dosage 1.25 g/ha): 90%; Post-emergence action against SETVI in % (Setaria viridis (SETVI); dosage 5 g/ha): 100%; Post-emergence action against TRZAS (crop plant compatibility) ([8]; 1.25 g/ha): 20%; Post-emergence action against TRZAS (crop plant compatibility) ([8]; 5 g/ha): 20%; Post-emergence action against BRSNW (crop plant compatibility) (Brassica napus (BRSNW)): 10%; Post-emergence action against GLXMA in % (Glycine max (GLXMA); 1.25 g/ha): 10% |
| 0 | 20 | CC(Oc1ccccc1Sc1cc(-n2c(=O)cc(C(F)(F)F)n(C)c2=O)c(F)cc1Cl)C(=O)OCC1CCOC1 (mixture of isomers) [I.2-72] | 80 | 100 | 90 | 100 | 100 | 100 | 100 | 100 | 100 | 100 | 100 | 100 | 100 | 100 | 100 | 100 | 100 | 100 | Post-emergence action against MATIN in % ([5]; dosage 20 g/ha): 100%; Post-emergence action against ECHCG in % ([6]; dosage 5 g/ha): 80%; Post-emergence action against ECHCG in % ([6]; dosage 20 g/ha): 80%; Post-emergence action at 20 g/ha against ALOMY in % [7]: 90%; Post-emergence action against SETVI (Setaria viridis (SETVI)): 100%; Post-emergence action against SETVI in % (Setaria viridis (SETVI); dosage 1.25 g/ha): 90%; Post-emergence action against SETVI in % (Setaria viridis (SETVI); dosage 5 g/ha): 100%; Post-emergence action against TRZAS (crop plant compatibility) ([8]; 1.25 g/ha): 20%; Post-emergence action against TRZAS (crop plant compatibility) ([8]; 5 g/ha): 20%; Post-emergence action against BRSNW (crop plant compatibility) (Brassica napus (BRSNW)): 10%; Post-emergence action against GLXMA in % (Glycine max (GLXMA); 1.25 g/ha): 0%; Post-emergence action against GLXMA in % (Glycine max (GLXMA); 5 g/ha): 10% |
